Series [1] deals with CaM(1TnC): domain 1 of TnC and domains 2, 3 and 4 of CaM. Briefly: ITC; 1 mM Orai-CMBD titrated into 30 uM CaM or chimera; 10 mM Tris, pH 7.5, 0.1 M NaCl, 2 mM Ca2+, 25°C; 'one set of sites' or two sequential binding sites model. On the technique in general: Isothermal titration calorimetry measures the heat released or taken up as one component is titrated into another.
Series [2] addresses dansyl-labeled CaM(1TnC). The series can be described thus: stopped-flow fluorescence (dissociation chase); 5 uM dansyl-labeled CaM or chimera with 15 uM Orai-CMBD, 2 mM Ca2+, mixed with 75 uM unlabeled CaM, 2 mM Ca2+; dansyl fluorescence decay (excitation 370 nm), single exponential fit.
The nature of series [3]: ANS steady-state fluorescence (hydrophobicity probe). In kind it is biochemical. The conditions noted are these: for ANS fold enhancement: pH 7.5, 0.1 M NaCl, 2 mM Ca^2+. An excerpt: It is well known that the exposure of the hydrophobic patches of CaM is essential for target protein recognition. Such hydrophobic exposure can be photometrically monitored by its interaction with extrinsic 1-anilinonaphthalene 8-sulfonate (ANS) and 2-p-toluidinyl-naphthalene-6-sulfonate (TNS) molecules. These two fluorophores have been widely used as a probe for measuring hydrophobicity. ANS is a fluorescent dye which emits very weak fluorescence in water due to its excited charge transfer (CT) state that is quenched easily by water molecules. […] ANS fluorescence increases dramatically in a hydrophobic environment or when the rotational motion of its phenylamino group is restricted. […] The fluorescence increased when Ca^2+ was included in the mixture.
ANS fluorescence was excited at 350 nm.
Absorption measurements were carried out using a UV-1800 double-beam spectrometer (Shimadzu, Kyoto, Japan). The fluorescence spectra were recorded on a FluoroMax-3P (Horiba Scientific) equipped with a temperature control unit. For intrinsic Trp fluorescence, the excitation wavelength of 295 nm was chosen. […] The samples containing ANS or dansyl-labeled proteins were excited at 350 and 370 nm, respectively. The slit widths of 2 and 5 nm were typically chosen for excitation and emission, respectively, to eliminate photobleaching.

Series [4] is described as follows: ANS binding by isothermal titration calorimetry. The conditions noted are these: 30 mM Hepes, 25°C. The source says:
The heat evolved is proportional to the amount of the ANS/Ca^2+-CaM complex formation. […] We fit the data with “one set of sites” to obtain the apparent association binding constant (Kapp) of 2.10 ± 0.11 × 10^3 M^−1 for Ca^2+-CaM (Table 1), consistent with a previous report. […] Based on our studies, the middle point from the ITC thermogram (and the inflection point in the corresponding derived binding isotherm) indicates approximately 4–6 bound-ANS molecules in Ca^2+-CaM. Therefore, Kapp is proportional to the actual number of protein-bound ANS molecules in the experimental condition. In the text below, we will discuss Kapp as the ANS binding affinity for simplicity.
The ITC data were fit with a “one set of sites” model as described in the Experimental section.
The ITC experiments were carried out on a VP-ITC (GE, Pittsburgh, PA). Protein samples were buffer-exchanged to the desired buffer. Peptide concentration was prepared by adding buffer to the peptide powder as measured by weight. All samples were degassed 15–30 min before loading. To avoid buffer mismatch, the syringe and sample cells were rinsed with the desired buffer prior to sample loading. A typical titration was performed by sequential injections every 120–180 sec of 5–10 μL solution at 25°C. The ITC raw data was corrected for the heat of titrant dilution determined by an experiment conducted in identical conditions except that no protein was contained in the sample cell. The corrected data, after integration of heat evolved, was fitted with Origin software provided by the manufacturer to determine Ka and the observed or apparent ΔH (ΔHapp).

Series [5] is described as follows: Far-UV circular dichroism. The conditions noted are these: Ca^2+-bound, 0.1 mg/ml protein, 10 mM Tris, pH 7.5. (In general: Circular dichroism is widely used to follow secondary structure.)
Protocol: The CD spectra were recorded in a JASCO J-715 instrument (JASCO Corporation, Japan) equipped with a temperature control unit. CD spectra were recorded using a cylindrical 0.1 cm path length quartz curvet and were shown as the average of 3–6 scans using a spectra bandwidth of 1.0 nm. In all measurements, 0.1 mg/ml proteins in 10 mM Tris, pH 7.5 with 1–2 mM Ca^2+ or 0.5 mM EDTA were scanned from 190 nm to 260 nm.
For series [6] the following is noted: no reference given; cited from earlier work. The source says: (§1) Given the structural similarities and functional differences of CaM an ...
For series [7], the system named is Ca^2+-ATPase. The conditions noted are these: ref [13]; cited from earlier work.
Source text: as §1

Series [8] has as its system nNOS. The conditions noted are these: ref [12]; cited from earlier work.
Source text: as §1

For series [9] the following is noted: ref [13]; cited from earlier work. An excerpt: It is well known that the exposure of the hydrophobic patches of CaM is essential for target protein recognition. Such hydrophobic exposure can be photometrically monitored by its interaction with extrinsic 1-anilinonaphthalene 8-sulfonate (ANS) and 2-p-toluidinyl-naphthalene-6-sulfonate (TNS) molecules. These two fluorophores have been widely used as a probe for measuring hydrophobicity. ANS is a fluorescent dye which emits very weak fluorescence in water due to its excited charge transfer (CT) state that is quenched easily by water molecules.

Series [10] relates to CaM. The series can be described thus: Stern-Volmer quenching of CaM-bound ANS by acrylamide. An excerpt:
Given that steady state fluorescence cannot differentiate the intensity contribution from individual ANS molecules, we utilized time-correlated single-photon counting (TCSPC) spectrometry to measure the ANS fluorescence decay. […] The data was best fit with a three-exponential-decay function. The shortest lifetime (τ3 = ~0.3 ns) was assigned to that of free ANS molecules, which was confirmed by using an ANS solution alone. Note that this lifetime reaches the detection limitation of our instrument and therefore, it cannot be determined precisely. […] The fitting also provided the fractional (or relative amplitude), fs, which weights the “amount” of the emitting species, and the normalized pre-exponential value, Bs, which provides the relative concentration of each species. […] In other words, the long lifetime component of ANS is one order less quenched by acrylamide.
For a quenching that is purely by collision, the steady-state and lifetime Stern-Volmer quenching equation can be expressed as4 <τo>/<τ>=1+KsvQandKsv=kqxτ0 where τ and τo are the lifetime in the presence and absence of the quencher, and kq is the quenching rate constant.

Take “Orai-CMBD, 24-residue peptide corresponding to the CaM-binding domain of Orai1 (residues 68-91)”: in series [1], the Ka1 (first of two sequential sites) came to 757000 M⁻¹, the Ka2 (second of two sequential sites) turned out to be 17000 M⁻¹, the dH1 (first of two sequential sites) was -4.99 kcal/mol and the dH2 (second of two sequential sites) is -3.33 kcal/mol. Moreover, the stoichiometry N – broadly, the number of molecules, sites or subunits per partner or assembly – in series [1] is 2. The koff (in general, a measure of how fast the partners let go of each other) in series [2] came out at 2.44 s⁻¹.

For the compound Calmodulin [CaM], the “increase of ANS fluorescence intensity on Orai-CMBD binding” value in [3] (Ca^2+-bound protein) is on record as ~ 10%. Further, the ANS fluorescence change entry in [3] (absence of Ca^2+) is reported as “exhibited no change”. In addition, the ANS enhancement in [3] (in the absence of salt, 30 mM Hepes, pH 7.5, 2 mM Ca^2+, spectra integration vs apo protein, at least three repeats, three protein batches) was 3.01 ± 0.12 fold. Besides, the ANS fold enhancement in series [3] (in the presence of salt and Orai-CMBD, 30 mM Hepes, vs apo protein) was found to be 3.87 ± 0.10 fold; in series [3] (in the presence of salt, 30 mM Hepes, spectra integration vs apo protein), 3.49 ± 0.07 fold. Moreover, the K app in [4] (in the absence of salt, pH 7.5, 2 mM Ca^2+, apparent association constant, one set of sites) was 2.10 ± 0.11 × 10^3 M^−1; in series [4] (in the presence of salt and Orai-CMBD, pH 7.5, 0.1 M NaCl, 2 mM Ca^2+) it was 3.43 ± 0.65 × 10^3 M^−1; in series [4] (in the presence of salt, pH 7.5, 0.1 M NaCl, 2 mM Ca^2+, apparent association constant), 3.69 ± 0.08 × 10^3 M^−1. Further, the “ellipticity ratio θ220/θ209” value in series [5] is ~ 1.

With Troponin C [TnC], the “Ca^2+ affinity of EF4 relative to that of CaM” value in series [6] is reported as “one order higher”. In addition, in series [7], the “affinity for Ca^2+-ATPase” value is “very low affinity”. Besides, the “binding to / activation of nNOS” value in series [8] is on record as “can neither bind to nor activate nNOS”. For the same compound, the “interaction with ANS” value in series [9] is “no interaction between TnC and ANS”.

As to `O=S(=O)(O)c1cccc2cccc(Nc3ccccc3)c12` [ANS, 1-anilinonaphthalene 8-sulfonate], the “kq (quenching rate constant), short lifetime” value in series [10] (τ1 ANS) is 2.2e+08 M⁻¹ s⁻¹. Also, the “kq (quenching rate constant), τ2” value in series [10] (τ2 ANS) is 1.9e+07 M⁻¹ s⁻¹.
